{"source": "patent US9161502B2", "about": "“Brassica juncea lines with a canola fatty acid profile” (PIONEER HI BRED INTERNATIONAL INC, priority 2007, dated 2015)", "test_system": "B. juncea seed", "assay": "EMS kill curves: germination of B. juncea seed treated with various concentrations of EMS", "format": "in vivo, Brassica juncea", "conditions": "for % germination: seeds soaked 18 hours, germination box 25° C., 7 days", "method": "A bulk population (99SJ-1309) was created for this experiment from 8 different low glucosinolate and low erucic acid B. juncea breeding lines. These lines were selected for a range of quality and agronomic traits such as oil content and seed size. 500 seeds of the bulk population were used for each treatment of the following experiment. The seeds were soaked in various concentrations EMS for 18 hours and then washed 3 times. A sub-sample of 100 seeds was placed in a germination box at 25° C. for 7 days. After 7 days, the number of seeds that germinated and produced a healthy radicle was calculated. All seeds that were treated with EMS took at least 2 days longer to germinate than controls.\nEMS treatment of seed affected the germination rate (FIG. 1, Table 2 and Table 3). […] This experiment was not replicated. Its purpose was to evaluate the effect of EMS on seed germination rate. The first experiment was designed to test a broad range of EMS application rates and the second experiment was to reduce the range of EMS treatment to develop the desirable mutations (Table 3)."}
{"smiles": "CCOS(C)(=O)=O", "note": "[EMS, ethyl methane sulfonate]", "values": [{"measurement": "germination rate versus expectation", "setting": "0.36% EMS treatment rate", "result": "much lower germination rate than expected"}, {"measurement": "germination rate", "setting": "0.48% EMS, text summary of Experiment 1", "result": "approximately 50%"}, {"measurement": "delay of germination versus controls", "setting": "all seeds treated with EMS", "result": "at least 2 days"}, {"measurement": "germination rates", "setting": "highest concentrations of EMS", "result": "less than 50%"}, {"measurement": "% germination", "setting": "kill curve #1 (Treatment 1), EMS 0.16% w/v", "result": 93, "unit": "%"}, {"measurement": "% germination", "setting": "kill curve #1 (Treatment 1), EMS 0.33% w/v", "result": 90, "unit": "%"}, {"measurement": "% germination", "setting": "kill curve #1 (Treatment 1), EMS 0.48% w/v", "result": 61, "unit": "%"}, {"measurement": "% germination", "setting": "kill curve #1 (Treatment 1), EMS 0.64% w/v", "result": 39, "unit": "%"}, {"measurement": "% germination", "setting": "kill curve #2 (Treatment 2), EMS 0.36% w/v", "result": 57, "unit": "%"}, {"measurement": "% germination", "setting": "kill curve #2 (Treatment 2), EMS 0.42% w/v", "result": 68, "unit": "%"}, {"measurement": "% germination", "setting": "kill curve #2 (Treatment 2), EMS 0.48% w/v", "result": 43, "unit": "%"}, {"measurement": "% germination", "setting": "kill curve #2 (Treatment 2), EMS 0.56% w/v", "result": 46, "unit": "%"}, {"measurement": "effect on germination rate", "setting": "lowest concentrations (0.16 and 0.33%)", "result": "little effect on germination rate"}]}
